From PubChem BioAssay AID789 (SRMLSC, 2007)
Calls of active or inactive are those of the source. How the calls were made is not given here.

How the values were obtained:
[1] = growth inhibition of apl2Δ yeast, dose response, selectivity assay for post-Golgi transport modulator project, S. cerevisiae, secondary screen, background strain comparison (AID 789); conditions: S. cerevisiae background (wild-type parent) strain growth inhibition
[2] = test system: S. cerevisiae apl2Δ mutant growth inhibition; test: as above

Structure (SMILES): O=C(OCn1nnc2ccccc2c1=O)c1cn(-c2ccccc2)nc1-c1cccnc1
- IC50 [1]: > 10 µM
- IC50 [2]: > 10 µM (inactive)

Structure (SMILES): COc1ccc(C(=O)c2c(C(F)(F)F)oc3c2C(=O)c2ccccc2C3=O)cc1
- IC50 [1]: 2.32 µM
- IC50 [2]: > 10 µM (inactive)

Structure (SMILES): Clc1ccc(Cn2nnc(-c3ccc(CN4CCOCC4)cc3)n2)cc1
- IC50 [1]: > 10 µM
- IC50 [2]: 18.9 µM

Structure (SMILES): Cc1ccc(S(=O)(=O)N2CC3CC(C2)c2cccc(=O)n2C3)cc1 (centres undefined)
- IC50 [1]: > 10 µM
- IC50 [2]: > 10 µM (inactive)

Structure (SMILES): Cc1ccc(CSc2nc3ccccc3cc2C=O)cc1
- IC50 [1]: 2.1 µM
- IC50 [2]: 7.24 µM (inactive)

Structure (SMILES): CN1/C(=C/C2CC(=O)NC2=O)C(C)(C)c2ccccc21 (centres undefined)
- IC50 [1]: > 10 µM
- IC50 [2]: > 10 µM (inactive)

Structure (SMILES): COc1ccccc1N1CCN(C2CCN(C(=O)c3cc(OC)c(OC)c(OC)c3)CC2)CC1
- IC50 [1]: > 10 µM
- IC50 [2]: > 10 µM (inactive)

Structure (SMILES): CC(C)Oc1ccc(/C(O)=C2/C(=O)C(=O)N(CCN(C)C)C2c2ccco2)cc1 (centres undefined)
- IC50 [1]: > 10 µM
- IC50 [2]: > 10 µM (inactive)

Structure (SMILES): Cc1ccc(C2(C(F)(F)F)N=C3Sc4cc(C)cc(C)c4N3C(=O)N2)cc1 (centres undefined)
- IC50 [1]: 1.08 µM
- IC50 [2]: 1.73 µM (inactive)

Structure (SMILES): O=C1OCC(CO)(CO)N=C1NNc1ccc(Cl)c(Cl)c1
- IC50 [1]: 3.35 µM
- IC50 [2]: 4.53 µM (inactive)

Structure (SMILES): CC(C)(C)n1nnnc1CN(Cc1cccnc1)Cc1ccccc1Cl
- IC50 [1]: > 10 µM
- IC50 [2]: > 10 µM (inactive)

Structure (SMILES): CCCCSCCCNC(=O)Nc1cccc(OC)c1
- IC50 [1]: > 10 µM
- IC50 [2]: > 10 µM (inactive)

Structure (SMILES): COc1ccc2c(c1)C(C)=CC(C)(C)N2C(=O)CSc1nnc(-c2ccc(C)cc2)o1
- IC50 [1]: > 10 µM
- IC50 [2]: > 10 µM (inactive)

Structure (SMILES): Cc1cc(C(C)(C)C)ccc1OCCN1CCCC1
- IC50 [1]: > 10 µM
- IC50 [2]: > 10 µM (inactive)

Structure (SMILES): CCOc1cccc(C(=O)Nc2cccnc2)c1
- IC50 [1]: > 10 µM
- IC50 [2]: > 10 µM (inactive)

Structure (SMILES): CCn1c(-c2c[nH]c3ccccc23)n[nH]c1=S
- IC50 [1]: > 10 µM
- IC50 [2]: > 10 µM (inactive)

Structure (SMILES): Cn1c2ccc(Cl)cc2c2nc3ccccc3nc21
- IC50 [1]: > 10 µM
- IC50 [2]: > 10 µM (inactive)

Structure (SMILES): N#CC1=C(N)C(C#N)(C#N)C(c2cccnc2)C2CC(c3ccccc3)CC=C12 (centres undefined)
- IC50 [1]: 2.97 µM
- IC50 [2]: 4.06 µM (inactive)

Structure (SMILES): O=C(NCCSCc1ccc(Cl)cc1Cl)c1ccc(CN2CCOCC2)cc1
- IC50 [1]: > 10 µM
- IC50 [2]: > 10 µM (inactive)

Structure (SMILES): O=C(NCCc1ccccc1)C1CCN(S(=O)(=O)N2CCCC2)CC1
- IC50 [1]: > 10 µM
- IC50 [2]: > 10 µM (inactive)

Structure (SMILES): CC1CCCN(CCOCCOc2ccc(Cl)cc2Br)C1 (centres undefined)
- IC50 [1]: > 10 µM
- IC50 [2]: 21.7 µM

Structure (SMILES): O=[N+]([O-])c1ccc(N/N=C/c2c[nH]c3ccccc23)c(S(=O)(=O)Nc2ccc(Cl)cc2)c1
- IC50 [1]: 2.5 µM
- IC50 [2]: 7.17 µM (inactive)

Structure (SMILES): NC(=O)c1ccsc1NC(=O)c1nc(-c2ccccc2)n(-c2ccccc2)n1
- IC50 [1]: > 10 µM
- IC50 [2]: > 10 µM (inactive)

Structure (SMILES): COc1cc2[nH]c(=S)n(CCCN3CCOCC3)c(=O)c2cc1OC
- IC50 [1]: > 10 µM
- IC50 [2]: > 10 µM (inactive)

Structure (SMILES): C=CCc1ccccc1OCC(O)CN1CCN(Cc2ccc3c(c2)OCO3)CC1 (centres undefined)
- IC50 [1]: > 10 µM
- IC50 [2]: 19.6 µM

Structure (SMILES): CCc1ccc(N(C(=O)c2csnn2)C(C(=O)NC(C)(C)C)c2ccncc2)cc1 (centres undefined)
- IC50 [1]: > 10 µM
- IC50 [2]: > 10 µM (inactive)

Structure (SMILES): Clc1ccc(-c2n[nH]c3c2CCC3)cc1Cl
- IC50 [1]: 1.81 µM
- IC50 [2]: 2.74 µM (inactive)

Structure (SMILES): Cc1cc(=O)[nH]c(SCC(=O)c2ccc(C)c(C)c2)n1
- IC50 [1]: 2.31 µM
- IC50 [2]: 6.63 µM (inactive)

Structure (SMILES): O=C(COc1ccc(Cl)cc1Cl)N1CCN(C/C=C/c2ccccc2)CC1
- IC50 [1]: 7.14 µM
- IC50 [2]: 4.89 µM

Structure (SMILES): CCOC(=O)C(C)Oc1ccc2c(C)cc(=O)oc2c1C(C)=O (centres undefined)
- IC50 [1]: > 10 µM
- IC50 [2]: > 10 µM (inactive)

Structure (SMILES): CCOc1cc(/C=C\[N+](=O)[O-])ccc1OCC(=O)Nc1ccccc1C
- IC50 [1]: > 10 µM
- IC50 [2]: > 10 µM (inactive)

Structure (SMILES): CCOC(=O)C(NC(C)=O)(Nc1ccc(S(=O)(=O)Nc2onc(C)c2C)cc1)C(F)(F)F (centres undefined)
- IC50 [1]: > 10 µM
- IC50 [2]: > 10 µM (inactive)

Structure (SMILES): CCc1cc(=O)oc2cc(C)c(CN3CCCC(C)C3)c(O)c12 (centres undefined)
- IC50 [1]: > 10 µM
- IC50 [2]: > 10 µM (inactive)

Structure (SMILES): Cc1nnc(-c2cccc(Br)c2)c2cn(-c3ccccc3)nc12
- IC50 [1]: > 10 µM
- IC50 [2]: > 10 µM (inactive)

Structure (SMILES): c1ccc2c(c1)oc1c(Nc3ccc(CN4CCOCC4)cc3)ncnc12
- IC50 [1]: > 10 µM
- IC50 [2]: > 10 µM (inactive)

Structure (SMILES): CCCOc1ccccc1N/C(=N/c1nc(C)cc(C)n1)NC(=O)COc1ccc(OC)cc1
- IC50 [1]: > 10 µM
- IC50 [2]: > 10 µM (inactive)

Structure (SMILES): O=C1OCC2=C1C(c1ccc(F)cc1)Sc1ccccc1N2 (centres undefined)
- IC50 [1]: > 10 µM
- IC50 [2]: > 10 µM (inactive)

Structure (SMILES): OC(COCc1ccc(Cl)cc1)CN1CC=C(c2ccccc2)CC1 (centres undefined)
- IC50 [1]: 20.8 µM
- IC50 [2]: 8.58 µM

Structure (SMILES): CCOC(=O)N1CCN(c2ccc(S(=O)(=O)N(Cc3ccccc3)Cc3ccccc3)cn2)CC1
- IC50 [1]: > 10 µM
- IC50 [2]: > 10 µM (inactive)

Structure (SMILES): Cc1ccc(N2CCN(S(=O)(=O)N3CCCCCC3)CC2)cc1Cl
- IC50 [1]: > 10 µM
- IC50 [2]: > 10 µM (inactive)

Structure (SMILES): Cc1ccc(S(=O)(=O)c2c(C)nn(C(C)(C)C)c2OC(=O)c2ccc(Br)o2)cc1
- IC50 [1]: > 10 µM
- IC50 [2]: > 10 µM (inactive)

Structure (SMILES): CCOC(=O)NC(Nc1ccc(S(N)(=O)=O)cc1)(C(=O)OCC)C(F)(F)F (centres undefined)
- IC50 [1]: > 10 µM
- IC50 [2]: > 10 µM (inactive)

Structure (SMILES): COc1ccc(NC(=O)c2ccc(CN3CCN(c4ccccc4)CC3)cc2)cc1
- IC50 [1]: > 10 µM
- IC50 [2]: > 10 µM (inactive)

Structure (SMILES): CC(C)COC(=O)c1ccc2c(c1O)C(=O)c1ccccc1C2=O
- IC50 [1]: > 10 µM
- IC50 [2]: > 10 µM (inactive)

Structure (SMILES): O=C(C1CCN(S(=O)(=O)c2cccs2)CC1)N1CCCCCC1
- IC50 [1]: > 10 µM
- IC50 [2]: > 10 µM (inactive)

Structure (SMILES): O=c1c2cccc3c2c(nn1CN1CCOCC1)-c1ccccc1-3
- IC50 [1]: > 10 µM
- IC50 [2]: > 10 µM (inactive)

Structure (SMILES): Cc1cc(C)c2c(c1)/C(=C/C(=O)c1ccc(Br)s1)C(=O)N2
- IC50 [1]: 1.42 µM
- IC50 [2]: 1.55 µM (inactive)

Structure (SMILES): Cc1ccn2cc(-c3nonc3C)cc2c1
- IC50 [1]: > 10 µM
- IC50 [2]: > 10 µM (inactive)

Structure (SMILES): CCN1C(=O)c2ccc(C(=O)NCc3ccccc3)cc2C1=O
- IC50 [1]: > 10 µM
- IC50 [2]: > 10 µM (inactive)

Structure (SMILES): CCOC(=O)c1c(-n2c(C)cc(C=C3C(=O)NC(=S)NC3=O)c2C)sc2c1CCCC2
- IC50 [1]: 11.5 µM
- IC50 [2]: > 10 µM (inactive)

Structure (SMILES): CCSc1nnc(NC(=O)NCC(F)(F)F)s1
- IC50 [1]: > 10 µM
- IC50 [2]: > 10 µM (inactive)

Structure (SMILES): Cc1ccc(-c2csc3nnc(SCC(=O)Nc4cccc(C)n4)n23)cc1
- IC50 [1]: > 10 µM
- IC50 [2]: > 10 µM (inactive)

Structure (SMILES): O=C1NC2(Nc3ccccc31)C(=O)Nc1ccccc12 (centres undefined)
- IC50 [1]: > 10 µM
- IC50 [2]: > 10 µM (inactive)

Structure (SMILES): CC(NC(=O)CSc1nc2c(cc1C#N)CN(C)CC2)c1ccccc1 (centres undefined)
- IC50 [1]: > 10 µM
- IC50 [2]: > 10 µM (inactive)

Structure (SMILES): COc1ccc(N2CCN(C(=O)CCNS(=O)(=O)c3ccc(Br)s3)CC2)cc1
- IC50 [1]: > 10 µM
- IC50 [2]: > 10 µM (inactive)

Structure (SMILES): c1coc(CNc2nc(N3CCCCC3)nc3ccccc23)c1
- IC50 [1]: > 10 µM
- IC50 [2]: > 10 µM (inactive)

Structure (SMILES): CCC(C)(C)NC(=O)CN(C(=O)CCC(=O)Nc1ccccn1)c1ccc(F)c(Cl)c1
- IC50 [1]: > 10 µM
- IC50 [2]: > 10 µM (inactive)

Structure (SMILES): N#CC1=C(N)NC(SCc2ccc(F)cc2)=C(C#N)C12CCCCC2
- IC50 [1]: 16.3 µM
- IC50 [2]: 7.78 µM

Structure (SMILES): Clc1ccc(-c2cnc(Oc3ccccc3)nc2)cc1
- IC50 [1]: > 10 µM
- IC50 [2]: > 10 µM (inactive)

Structure (SMILES): COc1ccc(NC(=S)NC(NC(=O)c2ccc(Cl)cc2Cl)C(Cl)(Cl)Cl)c([N+](=O)[O-])c1 (centres undefined)
- IC50 [1]: > 10 µM
- IC50 [2]: > 10 µM (inactive)

Structure (SMILES): CCOc1ccc(-c2[nH]ncc2Oc2ccccc2OCC)c(O)c1
- IC50 [1]: 16 µM
- IC50 [2]: 13.4 µM

Structure (SMILES): COCCNc1cc(C)nc2c3c(C)cc(C)nc3nn12
- IC50 [1]: > 10 µM
- IC50 [2]: > 10 µM (inactive)
